Reference: patent US10597388B2, “Pyridazinone herbicides” (FMC CORPORATION, priority 2014, dated 2020)

How the values were obtained:
Type in all cases: in vivo
[1] = test system: galium (catchweed bedstraw, Galium aparine); assay: Test A greenhouse herbicide test, postemergence
Summary of the method: (§1)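 Visual injury score, 0 (no effect) to 100 (complete control), versus untreated controls roughly 10 d after postemergence spray; plants at one- to two-leaf stage, 2 to 10 cm tall, in loam soil and sand, kept in greenhouse.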

[2] = test system: blackgrass (Alopecurus myosuroides); assay: Test A greenhouse herbicide test, postemergence
Summary of the method: as §1

[3] = test system: foxtail, giant (giant foxtail, Setaria faberii); assay: Test A greenhouse herbicide test, pre- and postemergence
Summary of the method: (§2)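 Seeds in loam–sand blend received a preemergence directed soil spray; plants at 2–10 cm, one- to two-leaf stage, received postemergence sprays. Compounds in a non-phytotoxic solvent with surfactant. After about 10 d in a greenhouse, injury rated visually versus untreated controls on a 0–100 scale (100 = complete control).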

[4] = test system: ryegrass, Italian (Italian ryegrass, Lolium multiflorum); assay: as above
Summary of the method: as §2

[5] = test system: barnyardgrass (Echinochloa crus-galli); assay: as above
Summary of the method: as §2

[6] = test system: wheat (Triticum aestivum); assay: as above; settings: Postemergence
Summary of the method: as §2

[7] = test system: ragweed (common ragweed, Ambrosia elatior); assay: as above
Summary of the method: as §2

[8] = test system: pigweed (Amaranthus retroflexus); assay: as above
Summary of the method: as §2

kochia (Kochia scoparia) = assay: as above
Summary of the method: as §2

[9] = test system: ryegrass, Italian (Italian ryegrass, Lolium multiflorum); assay: Test C greenhouse herbicide test, pre- and postemergence
Summary of the method: (§3)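 Visual ratings on a 0 to 100 scale (0 = no effect, 100 = complete control) versus untreated controls, scored 13–15 d after treatment. Soil-applied preemergence to seeded loam/sand; foliar postemergence to 1- to 4-leaf plants (2–18 cm) in peat-vermiculite mix; compounds formulated in solvent plus surfactant.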

corn (Zea mays) = assay: as above
Summary of the method: as §3

[10] = 125 g ai/ha, 0 to 100 scale where 0 is no effect and 100 is complete control
[11] = 500 g ai/ha, visual rating after approx. 10 d, 0 to 100 scale (0 no effect, 100 complete control)
[12] = Postemergence, 125 g ai/ha, 0 to 100 scale where 0 is no effect and 100 is complete control
[13] = Postemergence, 500 g ai/ha, visual rating after approx. 10 d, 0 to 100 scale (0 no effect, 100 complete control)
[14] = Preemergence, 125 g ai/ha, 0 to 100 scale where 0 is no effect and 100 is complete control
[15] = Preemergence, 500 g ai/ha, 0 to 100 scale where 0 is no effect and 100 is complete control
[16] = Postemergence, 31 g ai/ha, scale 0 to 100 (0 no effect, 100 complete control)
[17] = Postemergence, 125 g ai/ha, scale 0 to 100, 0 is no effect, 100 is complete control
[18] = Postemergence, 250 g ai/ha, scale 0 to 100, 0 no effect, 100 complete control, 13 to 15 d
[19] = postemergence, 62 g ai/ha, scale 0 to 100, 0 no effect, 100 complete control
[20] = Preemergence, 31 g ai/ha, scale 0 to 100, 0 is no effect, 100 is complete control
[21] = Preemergence, 62 g ai/ha, scale 0 to 100, 0 is no effect, 100 is complete control
[22] = Preemergence, 125 g ai/ha, scale 0 to 100, 0 is no effect, 100 is complete control
[23] = Preemergence, 250 g ai/ha, scale 0 to 100 (0 no effect, 100 complete control)
[24] = Postemergence, 62 g ai/ha, 0 to 100 scale (0 no effect, 100 complete control)
[25] = postemergence, 125 g ai/ha, scale 0 to 100, 0 no effect, 100 complete control

Cc1nn(C)c(=O)c(-c2ccc(F)c3ccccc23)c1OC(=O)CC(F)(F)F [Compound 123]
Plant response rating, Galium [1, 10]: 80 | Plant response rating, Galium [1, 11]: 90 | Plant response rating, Blackgrass [2, 10]: 30 | Plant response rating, Blackgrass [2, 11]: 50 | Plant response rating, Foxtail, Giant [3, 12]: 50 | Plant response rating, Foxtail, Giant [3, 13]: 60 | Foxtail, Giant plant response rating [3, 14]: 70 | Plant response rating, Foxtail, Giant [3, 15]: 70 | Plant response rating, Ryegrass, Italian [4, 12]: 90 | Plant response rating, Ryegrass, Italian [4, 13]: 100 | Ryegrass, Italian plant response rating [4, 14]: 90 | Plant response rating, Ryegrass, Italian [4, 15]: 100 | Plant response rating, Barnyardgrass [5, 12]: 40 | Plant response rating, Barnyardgrass [5, 13]: 70 | Barnyardgrass plant response rating [5, 14]: 0 | Plant response rating, Barnyardgrass [5, 15]: 80 | Plant response rating, Wheat [6, 10]: 0 | Plant response rating, Wheat [6, 11]: 20 | Plant response rating, Ragweed [7, 12]: 50 | Plant response rating, Ragweed [7, 13]: 90 | Ragweed plant response rating [7, 14]: 60 | Plant response rating, Ragweed [7, 15]: 70 | Plant response rating, Pigweed [8, 12]: 60 | Plant response rating, Pigweed [8, 13]: 70 | Pigweed plant response rating [8, 14]: 100 | Plant response rating, Pigweed [8, 15]: 100 | Plant response rating, Kochia (kochia (Kochia scoparia); [12]): 70 | Plant response rating, Kochia (kochia (Kochia scoparia); [13]): 70 | Kochia plant response rating (kochia (Kochia scoparia); [14]): 50 | Plant response rating, Kochia (kochia (Kochia scoparia); [15]): 100 | Plant response rating, Ryegrass, Italian [9, 16]: 90 | Plant response rating, Ryegrass, Italian [9, 17]: 90 | Plant response rating, Ryegrass, Italian [9, 18]: 95 | Plant response rating, Corn (corn (Zea mays); [16]): 10 | Plant response rating, Corn (corn (Zea mays); [17]): 20 | Plant response rating, Corn (corn (Zea mays); [18]): 20 | Corn plant response rating (corn (Zea mays); [19]): 15

Cc1ccc2ccccc2c1-c1c(O)c(Cl)nn(C)c1=O [Compound 125]
Plant response rating, Galium [1, 10]: 90 | Plant response rating, Galium [1, 11]: 90 | Plant response rating, Blackgrass [2, 10]: 70 | Plant response rating, Blackgrass [2, 11]: 80 | Plant response rating, Foxtail, Giant [3, 12]: 90 | Plant response rating, Foxtail, Giant [3, 13]: 90 | Foxtail, Giant plant response rating [3, 14]: 90 | Plant response rating, Foxtail, Giant [3, 15]: 100 | Plant response rating, Ryegrass, Italian [4, 12]: 100 | Plant response rating, Ryegrass, Italian [4, 13]: 100 | Ryegrass, Italian plant response rating [4, 14]: 100 | Plant response rating, Ryegrass, Italian [4, 15]: 100 | Plant response rating, Barnyardgrass [5, 12]: 90 | Plant response rating, Barnyardgrass [5, 13]: 90 | Barnyardgrass plant response rating [5, 14]: 70 | Plant response rating, Barnyardgrass [5, 15]: 90 | Plant response rating, Wheat [6, 10]: 50 | Plant response rating, Wheat [6, 11]: 80 | Plant response rating, Ragweed [7, 12]: 90 | Plant response rating, Ragweed [7, 13]: 100 | Ragweed plant response rating [7, 14]: 80 | Plant response rating, Ragweed [7, 15]: 90 | Plant response rating, Pigweed [8, 12]: 100 | Plant response rating, Pigweed [8, 13]: 100 | Pigweed plant response rating [8, 14]: 100 | Plant response rating, Pigweed [8, 15]: 100 | Plant response rating, Kochia (kochia (Kochia scoparia); [12]): 100 | Plant response rating, Kochia (kochia (Kochia scoparia); [13]): 100 | Kochia plant response rating (kochia (Kochia scoparia); [14]): 60 | Plant response rating, Kochia (kochia (Kochia scoparia); [15]): 90 | Plant response rating, Ryegrass, Italian [9, 16]: 85 | Plant response rating, Ryegrass, Italian [9, 17]: 95 | Plant response rating, Ryegrass, Italian [9, 18]: 95 | Plant response rating, Ryegrass, Italian [9, 20]: 85 | Plant response rating, Ryegrass, Italian [9, 21]: 95 | Plant response rating, Ryegrass, Italian [9, 22]: 95 | Ryegrass, Italian plant response rating [9, 23]: 95 | Plant response rating, Corn (corn (Zea mays); [16]): 5 | Plant response rating, Corn (corn (Zea mays); [17]): 5 | Plant response rating, Corn (corn (Zea mays); [18]): 5 | Plant response rating, Corn (corn (Zea mays); [20]): 0 | Plant response rating, Corn (corn (Zea mays); [21]): 0 | Plant response rating, Corn (corn (Zea mays); [22]): 20 | Corn plant response rating (corn (Zea mays); [23]): 55 | Corn plant response rating (corn (Zea mays); [19]): 0

Cc1nn(C)c(=O)c(-c2cccc3ccc(C#N)cc23)c1O [Compound 127]
Plant response rating, Galium [1, 10]: 90 | Plant response rating, Galium [1, 11]: 100 | Plant response rating, Blackgrass [2, 10]: 20 | Plant response rating, Blackgrass [2, 11]: 50 | Plant response rating, Foxtail, Giant [3, 12]: 10 | Plant response rating, Foxtail, Giant [3, 13]: 60 | Foxtail, Giant plant response rating [3, 14]: 50 | Plant response rating, Foxtail, Giant [3, 15]: 60 | Plant response rating, Ryegrass, Italian [4, 12]: 80 | Plant response rating, Ryegrass, Italian [4, 13]: 90 | Ryegrass, Italian plant response rating [4, 14]: 60 | Plant response rating, Ryegrass, Italian [4, 15]: 90 | Plant response rating, Barnyardgrass [5, 12]: 10 | Plant response rating, Barnyardgrass [5, 13]: 50 | Barnyardgrass plant response rating [5, 14]: 10 | Plant response rating, Barnyardgrass [5, 15]: 40 | Plant response rating, Wheat [6, 10]: 0 | Plant response rating, Wheat [6, 11]: 20 | Plant response rating, Ragweed [7, 12]: 60 | Plant response rating, Ragweed [7, 13]: 80 | Ragweed plant response rating [7, 14]: 30 | Plant response rating, Ragweed [7, 15]: 70 | Plant response rating, Pigweed [8, 12]: 90 | Plant response rating, Pigweed [8, 13]: 100 | Pigweed plant response rating [8, 14]: 70 | Plant response rating, Pigweed [8, 15]: 100 | Plant response rating, Kochia (kochia (Kochia scoparia); [12]): 70 | Plant response rating, Kochia (kochia (Kochia scoparia); [13]): 80 | Kochia plant response rating (kochia (Kochia scoparia); [14]): 0 | Plant response rating, Kochia (kochia (Kochia scoparia); [15]): 90 | Plant response rating, Ryegrass, Italian [9, 16]: 50 | Ryegrass, Italian plant response rating [9, 24]: 75 | Plant response rating, Ryegrass, Italian [9, 18]: 90 | Ryegrass, Italian plant response rating [9, 25]: 80 | Plant response rating, Corn (corn (Zea mays); [16]): 0 | Corn plant response rating (corn (Zea mays); [24]): 0 | Plant response rating, Corn (corn (Zea mays); [18]): 10 | Corn plant response rating (corn (Zea mays); [25]): 5

CC(=O)Oc1c(Br)nn(C)c(=O)c1-c1c(C)ccc2ccccc12 [Compound 129]
Plant response rating, Galium [1, 10]: 100 | Plant response rating, Galium [1, 11]: 100 | Plant response rating, Blackgrass [2, 10]: 60 | Plant response rating, Blackgrass [2, 11]: 100 | Plant response rating, Foxtail, Giant [3, 12]: 90 | Plant response rating, Foxtail, Giant [3, 13]: 100 | Foxtail, Giant plant response rating [3, 14]: 90 | Plant response rating, Foxtail, Giant [3, 15]: 100 | Plant response rating, Ryegrass, Italian [4, 12]: 100 | Plant response rating, Ryegrass, Italian [4, 13]: 100 | Ryegrass, Italian plant response rating [4, 14]: 100 | Plant response rating, Ryegrass, Italian [4, 15]: 100 | Plant response rating, Barnyardgrass [5, 12]: 90 | Plant response rating, Barnyardgrass [5, 13]: 100 | Barnyardgrass plant response rating [5, 14]: 90 | Plant response rating, Barnyardgrass [5, 15]: 100 | Plant response rating, Wheat [6, 10]: 20 | Plant response rating, Wheat [6, 11]: 80 | Plant response rating, Ragweed [7, 12]: 100 | Plant response rating, Ragweed [7, 13]: 100 | Ragweed plant response rating [7, 14]: 90 | Plant response rating, Ragweed [7, 15]: 90 | Plant response rating, Pigweed [8, 12]: 90 | Plant response rating, Pigweed [8, 13]: 100 | Pigweed plant response rating [8, 14]: 100 | Plant response rating, Pigweed [8, 15]: 100 | Plant response rating, Kochia (kochia (Kochia scoparia); [12]): 70 | Plant response rating, Kochia (kochia (Kochia scoparia); [13]): 90 | Kochia plant response rating (kochia (Kochia scoparia); [14]): 70 | Plant response rating, Kochia (kochia (Kochia scoparia); [15]): 90 | Plant response rating, Ryegrass, Italian [9, 16]: 70 | Ryegrass, Italian plant response rating [9, 24]: 90 | Plant response rating, Ryegrass, Italian [9, 18]: 95 | Plant response rating, Ryegrass, Italian [9, 20]: 90 | Plant response rating, Ryegrass, Italian [9, 21]: 90 | Plant response rating, Ryegrass, Italian [9, 22]: 95 | Ryegrass, Italian plant response rating [9, 23]: 95 | Ryegrass, Italian plant response rating [9, 25]: 95 | Plant response rating, Corn (corn (Zea mays); [16]): 0 | Corn plant response rating (corn (Zea mays); [24]): 20 | Plant response rating, Corn (corn (Zea mays); [18]): 30 | Plant response rating, Corn (corn (Zea mays); [20]): 0 | Plant response rating, Corn (corn (Zea mays); [21]): 5 | Plant response rating, Corn (corn (Zea mays); [22]): 15 | Corn plant response rating (corn (Zea mays); [23]): 40 | Corn plant response rating (corn (Zea mays); [25]): 30
